This assay has as its target DNA-dependent protein kinase catalytic subunit (Homo sapiens, UniProt P78527). As to the kind of experiment: DNA-PK Enzyme Inhibitory Assay. The method, then:
The assays of DNA-PK were performed by Reaction Biology Corporation, One Great Valley Parkway, Suite 2 Malvern, PA 19355 USA. All Compounds were dissolved in DMSO (negative control solvent) and tested for their ability to inhibit human DNA-PK enzyme activity. All synthesized compounds were tested in a 10-dose IC50 profile with 4-fold serial dilutions starting at concentration 100 μM. The control compound, LY294002 was tested in a 10-dose IC50 profile with 3-fold serial dilutions starting at 10 μM concentration. Reactions were carried out using 20 μM peptide substrate [EPPLSQEAFADLWKK], 10 μg/ml DNA and 10 μM ATP using the HTRF assay format.

From BindingDB's records for doi:10.7270/Q2930S2V (Taibah University, 2017) come the findings set out here.

The structures appear in SMILES notation. Where only a bound is given, the exact number is not on record here.

DNA-dependent protein kinase catalytic subunit, sequence (P78527 whole entry): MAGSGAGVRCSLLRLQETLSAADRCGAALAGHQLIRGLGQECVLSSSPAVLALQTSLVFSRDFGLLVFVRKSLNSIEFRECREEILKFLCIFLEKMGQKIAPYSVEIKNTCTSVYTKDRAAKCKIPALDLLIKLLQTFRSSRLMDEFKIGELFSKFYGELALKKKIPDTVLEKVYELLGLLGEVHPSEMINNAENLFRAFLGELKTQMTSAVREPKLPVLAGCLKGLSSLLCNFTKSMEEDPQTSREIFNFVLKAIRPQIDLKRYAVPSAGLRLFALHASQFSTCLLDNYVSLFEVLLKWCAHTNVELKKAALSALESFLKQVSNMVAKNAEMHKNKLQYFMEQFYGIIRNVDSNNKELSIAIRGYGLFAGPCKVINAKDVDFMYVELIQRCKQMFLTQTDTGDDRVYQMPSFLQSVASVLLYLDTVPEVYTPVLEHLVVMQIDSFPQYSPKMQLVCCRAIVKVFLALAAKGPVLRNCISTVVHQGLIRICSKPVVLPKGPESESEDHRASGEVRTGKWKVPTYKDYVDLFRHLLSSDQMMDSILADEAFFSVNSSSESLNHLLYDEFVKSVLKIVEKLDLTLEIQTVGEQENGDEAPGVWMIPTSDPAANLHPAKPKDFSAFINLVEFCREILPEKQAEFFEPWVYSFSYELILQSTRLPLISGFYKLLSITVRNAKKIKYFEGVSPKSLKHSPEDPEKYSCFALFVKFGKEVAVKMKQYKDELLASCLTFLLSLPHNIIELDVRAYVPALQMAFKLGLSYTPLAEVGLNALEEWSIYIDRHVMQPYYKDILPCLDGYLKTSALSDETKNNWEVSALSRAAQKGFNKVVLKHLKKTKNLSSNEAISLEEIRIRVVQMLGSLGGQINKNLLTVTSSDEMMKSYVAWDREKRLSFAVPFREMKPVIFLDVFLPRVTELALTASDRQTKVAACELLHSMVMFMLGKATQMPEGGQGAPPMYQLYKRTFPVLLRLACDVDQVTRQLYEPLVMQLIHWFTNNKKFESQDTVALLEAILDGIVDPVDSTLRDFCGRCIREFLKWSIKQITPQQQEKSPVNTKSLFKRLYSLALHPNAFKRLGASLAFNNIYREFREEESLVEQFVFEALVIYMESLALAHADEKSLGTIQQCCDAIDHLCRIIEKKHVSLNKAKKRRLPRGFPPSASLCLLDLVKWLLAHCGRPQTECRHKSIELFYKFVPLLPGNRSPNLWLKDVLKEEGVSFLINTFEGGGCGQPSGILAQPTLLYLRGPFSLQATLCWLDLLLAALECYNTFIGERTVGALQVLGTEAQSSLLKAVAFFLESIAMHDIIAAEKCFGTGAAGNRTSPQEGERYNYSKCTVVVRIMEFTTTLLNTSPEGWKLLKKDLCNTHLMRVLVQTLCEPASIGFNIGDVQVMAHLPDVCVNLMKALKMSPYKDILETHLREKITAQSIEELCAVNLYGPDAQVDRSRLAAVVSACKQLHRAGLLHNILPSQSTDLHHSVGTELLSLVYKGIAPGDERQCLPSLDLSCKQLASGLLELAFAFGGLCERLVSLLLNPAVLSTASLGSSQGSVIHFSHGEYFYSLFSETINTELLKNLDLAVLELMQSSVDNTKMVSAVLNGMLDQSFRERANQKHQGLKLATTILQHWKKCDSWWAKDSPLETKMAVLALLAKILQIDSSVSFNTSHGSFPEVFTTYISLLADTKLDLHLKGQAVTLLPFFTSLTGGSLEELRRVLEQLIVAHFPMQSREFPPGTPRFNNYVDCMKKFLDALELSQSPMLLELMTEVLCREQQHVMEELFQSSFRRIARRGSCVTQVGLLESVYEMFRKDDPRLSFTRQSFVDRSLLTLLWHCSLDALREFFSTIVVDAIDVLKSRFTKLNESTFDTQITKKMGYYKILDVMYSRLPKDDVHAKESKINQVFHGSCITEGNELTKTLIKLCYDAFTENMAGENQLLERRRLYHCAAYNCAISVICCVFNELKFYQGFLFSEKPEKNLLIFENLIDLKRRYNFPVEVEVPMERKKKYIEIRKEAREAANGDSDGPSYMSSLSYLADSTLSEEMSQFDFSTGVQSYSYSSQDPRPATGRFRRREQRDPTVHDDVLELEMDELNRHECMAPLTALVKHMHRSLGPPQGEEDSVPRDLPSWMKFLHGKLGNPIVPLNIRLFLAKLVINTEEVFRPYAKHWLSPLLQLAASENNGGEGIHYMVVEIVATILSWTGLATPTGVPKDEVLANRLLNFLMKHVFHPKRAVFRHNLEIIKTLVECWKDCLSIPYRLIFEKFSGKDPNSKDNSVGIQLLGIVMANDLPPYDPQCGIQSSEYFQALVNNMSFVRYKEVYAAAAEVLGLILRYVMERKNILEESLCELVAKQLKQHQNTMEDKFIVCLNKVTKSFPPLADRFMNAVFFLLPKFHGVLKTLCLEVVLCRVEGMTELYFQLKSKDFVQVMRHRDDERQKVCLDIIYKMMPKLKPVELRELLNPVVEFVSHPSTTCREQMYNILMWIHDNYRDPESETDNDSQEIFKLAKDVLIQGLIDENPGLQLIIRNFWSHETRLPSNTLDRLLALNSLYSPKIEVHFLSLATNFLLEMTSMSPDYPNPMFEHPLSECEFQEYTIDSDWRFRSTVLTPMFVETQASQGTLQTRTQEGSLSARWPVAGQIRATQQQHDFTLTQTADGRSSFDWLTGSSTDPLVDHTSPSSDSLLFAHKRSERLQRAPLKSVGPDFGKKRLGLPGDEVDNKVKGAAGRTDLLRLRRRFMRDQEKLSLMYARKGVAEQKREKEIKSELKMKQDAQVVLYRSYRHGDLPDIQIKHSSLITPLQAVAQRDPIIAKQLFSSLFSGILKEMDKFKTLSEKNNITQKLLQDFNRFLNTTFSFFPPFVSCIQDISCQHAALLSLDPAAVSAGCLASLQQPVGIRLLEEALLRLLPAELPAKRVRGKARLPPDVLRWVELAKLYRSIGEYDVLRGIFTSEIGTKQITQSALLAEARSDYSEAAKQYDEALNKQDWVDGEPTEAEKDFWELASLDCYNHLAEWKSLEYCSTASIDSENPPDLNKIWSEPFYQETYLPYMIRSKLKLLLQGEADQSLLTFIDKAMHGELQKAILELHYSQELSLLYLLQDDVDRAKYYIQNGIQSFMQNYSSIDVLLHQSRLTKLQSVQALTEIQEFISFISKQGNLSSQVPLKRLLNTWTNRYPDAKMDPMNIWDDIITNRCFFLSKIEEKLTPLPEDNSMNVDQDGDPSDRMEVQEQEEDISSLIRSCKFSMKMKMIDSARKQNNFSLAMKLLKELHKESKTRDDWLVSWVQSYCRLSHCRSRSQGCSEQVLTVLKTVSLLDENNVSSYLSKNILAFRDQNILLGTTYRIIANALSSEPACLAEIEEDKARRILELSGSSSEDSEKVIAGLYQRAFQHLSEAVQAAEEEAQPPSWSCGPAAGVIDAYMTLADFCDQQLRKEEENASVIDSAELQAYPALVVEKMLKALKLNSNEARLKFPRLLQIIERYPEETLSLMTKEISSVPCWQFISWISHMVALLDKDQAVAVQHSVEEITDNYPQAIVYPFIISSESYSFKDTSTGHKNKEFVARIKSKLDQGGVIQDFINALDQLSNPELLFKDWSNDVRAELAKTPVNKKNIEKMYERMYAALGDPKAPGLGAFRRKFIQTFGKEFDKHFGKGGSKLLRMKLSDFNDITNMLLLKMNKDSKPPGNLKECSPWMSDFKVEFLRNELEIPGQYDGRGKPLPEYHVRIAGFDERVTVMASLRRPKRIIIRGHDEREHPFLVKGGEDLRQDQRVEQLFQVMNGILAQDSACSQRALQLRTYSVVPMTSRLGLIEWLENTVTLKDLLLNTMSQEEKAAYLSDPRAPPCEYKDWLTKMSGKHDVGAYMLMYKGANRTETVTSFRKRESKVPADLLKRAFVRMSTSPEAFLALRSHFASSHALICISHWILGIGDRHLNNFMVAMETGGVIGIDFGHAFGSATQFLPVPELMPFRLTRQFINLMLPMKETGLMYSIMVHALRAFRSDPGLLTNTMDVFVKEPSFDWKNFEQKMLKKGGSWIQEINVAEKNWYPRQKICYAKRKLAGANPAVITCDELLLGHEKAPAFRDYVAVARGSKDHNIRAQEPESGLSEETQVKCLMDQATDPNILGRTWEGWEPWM

For the compound `Cc1c(OCC(=O)Nc2ccc(S(=O)(=O)Nc3ccccn3)cc2)ccc2c(=O)nc(N3CCOCC3)oc12` [2-((8-Methyl-2-morpholino-4-oxo-4H-benzo[e][1,3]oxazin-7-yl)oxy)-N-(4-(N-(pyridin-2-yl)sulfamoyl)phenyl)acetamide (7c)], the IC50 (as a rule, the concentration that gives 50% inhibition) amounted to 0.25 µM.

On to `Cc1c(OCC(=O)Nc2ccc(S(=O)(=O)Nc3nccs3)cc2)ccc2c(=O)nc(N3CCOCC3)oc12` [2-((8-Methyl-2-morpholino-4-oxo-4H-benzo[e][1,3]oxazin-7-yl)oxy)-N-(4-(N-(thiazol-2-yl)sulfamoyl)phenyl)acetamide (7d)], for which the IC50 was 3.5 µM. Compared with the last compound, the IC50 is about 14-fold higher.

For the compound `Cc1ccc(CNC(=O)COc2ccc3c(=O)nc(N4CCOCC4)oc3c2C)cc1` [2-((8-Methyl-2-morpholino-4-oxo-4H-benzo[e][1,3]oxazin-7-yl)oxy)-N-(4-methylbenzyl)acetamide (9c)], the IC50 was 20 µM. Then `Cc1c(OCC(=O)Nc2ccc(S(N)(=O)=O)cc2)ccc2c(=O)nc(N3CCOCC3)oc12` [2-((8-Methyl-2-morpholino-4-oxo-4H-benzo[e][1,3]oxazin-7-yl)oxy)-N-(4-sulfamoylphenyl)acetamide (7a)], with 40 µM.

In turn, `CCC(C)C(NC(=O)COc1ccc2c(=O)nc(N3CCOCC3)oc2c1C)C(=O)O` (stereo not given) [3-Methyl-2-(2-((8-methyl-2-morpholino-4-oxo-4H-benzo[e][1,3]oxazin-7-yl)oxy)acetamido)pentanoic acid (11b)] registered an IC50 of 80 µM. This IC50 is about 2-fold higher than that of the compound before. `Cc1c(OCC(=O)N[C@@H](C)C(=O)O)ccc2c(=O)nc(N3CCOCC3)oc12` [(2-((8-Methyl-2-morpholino-4-oxo-4H-benzo[e][1,3]oxazin-7-yl)oxy)acetyl)alanine (11a)]: the midpoint of inhibition, the IC50, lay at 100 µM. Then `Cc1c(OCC(=O)N[C@@H](Cc2ccccc2)C(=O)O)ccc2c(=O)nc(N3CCOCC3)oc12` [(2-((8-Methyl-2-morpholino-4-oxo-4H-benzo[e][1,3]oxazin-7yl)oxy)acetyl)phenylalanine (11c)], with 35 µM.

On to `Cc1noc(NS(=O)(=O)c2ccc(NC(=O)COc3ccc4c(=O)nc(N5CCOCC5)oc4c3C)cc2)c1C` [N-(4-(N-(3,4-dimethylisoxazol-5-yl)sulfamoyl)phenyl)-2-((8-methyl-2-morpholino-4-oxo-4H-benzo[e][1,3]oxazin-7-yl)oxy)acetamide (7f)], for which the IC50 stood at 5 µM. Compared with the last compound, the IC50 is about 7-fold lower. Next, `CC(=O)NS(=O)(=O)c1ccc(NC(=O)COc2ccc3c(=O)nc(N4CCOCC4)oc3c2C)cc1` [N-(4-(N-acetylsulfamoyl)phenyl)-2-((8-methyl-2-morpholino-4-oxo-4H-benzo[e][1,3]oxazin-7-yl)oxy)acetamide (7b)]: 35 µM; `Cc1c(OCC(=O)Nc2ccc(S(=O)(=O)NC(=N)N)cc2)ccc2c(=O)nc(N3CCOCC3)oc12` [N-(4-(N-carbamimidoylsulfamoyl)phenyl)-2-((8-methyl-2-morpholino-4-oxo-4H-benzo[e][1,3]oxazin-7-yl)oxy)acetamide (7e)]: 25 µM; `Cc1c(OCC(=O)NCc2ccc(Cl)cc2)ccc2c(=O)nc(N3CCOCC3)oc12` [N-(4-chlorobenzyl)-2-((8-methyl-2-morpholino-4-oxo-4Hbenzo[e][1,3]oxazin-7-yl)oxy)acetamide (9d)]: 10 µM. Take `Cc1c(OCC(=O)NCc2ccc(F)cc2)ccc2c(=O)nc(N3CCOCC3)oc12` [N-(4-fluorobenzyl)-2-((8-methyl-2-morpholino-4-oxo-4Hbenzo[e][1,3]oxazin-7-yl)oxy)acetamide (9e)]: the midpoint of inhibition, the IC50, lay at 4 µM. Next, `Cc1c(OCC(=O)NCc2ccc(O)cc2)ccc2c(=O)nc(N3CCOCC3)oc12` [N-(4-hydroxybenzyl)-2-((8-methyl-2-morpholino-4-oxo-4Hbenzo[e][1,3]oxazin-7-yl)oxy)acetamide (9f)]: 2.5 µM; `COc1ccc(CNC(=O)COc2ccc3c(=O)nc(N4CCOCC4)oc3c2C)cc1` [N-(4-methoxybenzyl)-2-((8-methyl-2-morpholino-4-oxo-4Hbenzo[e][1,3]oxazin-7-yl)oxy)acetamide (9b)]: 15 µM; `Cc1c(OCC(=O)NCc2ccccc2)ccc2c(=O)nc(N3CCOCC3)oc12` [N-benzyl-2-((8-methyl-2-morpholino-4-oxo-4H-benzo[e][1,3]oxazin-7-yl)oxy)acetamide (9a)]: more than 100 µM.
